Tests used:
[1] = system: Staphylococcus aureus; assay: Antimicrobial activity against Staphylococcus aureus assessed as inhibition of microbial growth incubated for 16 hrs by microdilution method; assay type: functional
[2] = system: Staphylococcus aureus; assay: Antimicrobial activity against methicillin-resistant Staphylococcus aureus assessed as inhibition of microbial growth incubated for 16 hrs by microdilution method; assay type: functional
[3] = system: Listeria monocytogenes; assay: Antimicrobial activity against Listeria monocytogenes assessed as inhibition of microbial growth incubated for 16 hrs by microdilution method; assay type: functional
[4] = system: Escherichia coli; assay: Antimicrobial activity against Escherichia coli assessed as inhibition of microbial growth incubated for 16 hrs by microdilution method; assay type: functional
[5] = system: Pseudomonas aeruginosa; assay: Antimicrobial activity against Pseudomonas aeruginosa assessed as inhibition of microbial growth incubated for 16 hrs by microdilution method; assay type: functional
[6] = system: Escherichia coli

## CCN1CCN(C(=O)N[C@@H](C(=O)N[C@@H]2C(=O)N3C(C(=O)O)=C(CSc4nnnn4C)CS[C@H]23)c2ccc(O)cc2)C(=O)C1=O [CEFOPERAZONE]
[1]
  MIC99.9: 0.5 mg/L
[2]
  MIC99.9: >128 mg/L
[3]
  MIC99.9: 16 mg/L
[4]
  MIC99.9: 0.125 mg/L
[5]
  MIC99.9: 2 mg/L
[6]
  MIC99.9: >128 mg/L

## CN[C@H](CC(C)C)C(=O)N[C@H]1C(=O)N[C@@H](CC(N)=O)C(=O)N[C@H]2C(=O)N[C@H]3C(=O)N[C@H](C(=O)N[C@H](C(=O)O)c4cc(O)cc(O)c4-c4cc3ccc4O)[C@H](O)c3ccc(c(Cl)c3)Oc3cc2cc(c3O[C@@H]2O[C@H](CO)[C@@H](O)[C@H](O)[C@H]2O[C@H]2C[C@](C)(N)[C@H](O)[C@H](C)O2)Oc2ccc(cc2Cl)[C@H]1O [VANCOMYCIN]
[1]
  MIC99.9: 2 mg/L
[2]
  MIC99.9: 2 mg/L
[3]
  MIC99.9: 1 mg/L
[4]
  MIC99.9: >128 mg/L
[5]
  MIC99.9: >128 mg/L
[6]
  MIC99.9: >128 mg/L

Reference: ChEMBL document CHEMBL4342499, “Novel Stapling by Lysine Tethering Provides Stable and Low Hemolytic Cationic Antimicrobial Peptides” (J Med Chem, 2020)
